Results as given in patent US12180255B2, “Compositions and methods for derepressing RE1 silencing transcription factor target genes” (Alcamena Stem Cell Therapeutics, LLC, priority 2019, dated 2024).
*1 amine or outer side, *2 acyl side, *3 side chain or, on linkers, in order; H or OH if unused. Where a SMILES comes first, the peptide text is derived from it. Bridges are numbered along the chain shown (N, C = ends). Where no end group is shown, it is not given here. [ ]: non-standard residue; d: D form. ξ: configuration not given here. ξGly(dodecyl) = CCCCCCCCCCCCC(N)C(=O)O; mXylylene = c1cc(C[*:1])cc(C[*:2])c1

Experiments:
[1] = Localization in spinal cord after injection at sciatic nerve defect; conditions: 1 mg injected into site of sciatic nerve defect, 48 hours
Procedure: FIG. 5. […] A 0.7 cm coronal spinal cord section from the […] region of a Sprague Dawley (SD) male rat showing the surrounding nuclei of the sciatic nerve, harvested 48 hours after 1 mg (1 mg/mL) of peptide was injected into the sight of a mid-thigh sciatic nerve defect injury.
Dosing and Procedure. […] After 48 hours, the animal was sacrificed and the spinal cord from the L4 to L6 region was sectioned coronally.
Immunohistochemistry. Hoechst 333429 (Calbiochem) dye was used to visualize the nucleus, and FLAG antibody (Sigma-Aldrich) was used to visualize the RPP. Images were taken with a light microscope.

NBFL cells = assay: BDNF, NGF and KV4.3 transcript levels in NBFL cells dosed with linear or cyclic RPP; format: cell-based; conditions: 1 μM
Procedure: FIG. 9. Comparison of linear and cyclic RPP. […] Efficacy on was assessed by measuring changes in (A) BDNF, (B) NGF, and (C) KV4.3 transcript levels. N=1
Plasmids. RPP (SEQ ID NOS: 2 and 4): One segment of this construct containing T7 promoter, CPP, and His tag was synthesized as a gBlock (Table 8) by IDT and amplified with primers described in Table 8. The PCR reaction (20 μL) was initially heated at 95° C. for 2.5 min followed by 30 cycles of denaturation at 94° C. for 15 sec., annealing at 55° C. for 15 sec., and extension at 72° C. for 30 seconds. Following amplification, PCR fragment was gel-purified by the QIAGEN gel-band purification kit according to manufacturer's protocol.
In vitro Expression. RPP (Table 8) or CP (Table 9) were expressed in vitro using the PURE Express In Vitro Protein Synthesis Kit (New England Biolabs). The RPP (SEQ ID NOS: 2 and 4) or CP sequence was amplified from the RPP (SEQ ID NOS: 2 and 4) or CP expression constructs (Table 8 and 9) with primers listed in Table 8, and gel-purified by the QIAGEN gel-band purification kit. The PCR reaction (20 μL) was initially heated at 95° C. for 2.5 min followed by 30 cycles of denaturation at 94° C. for 15 sec., annealing at 55° C. for 15 sec., and extension at 72° C. for 30 sec. Then, 15 μL of the purified PCR fragment was mixed with 10 μL of Solution A and 7.5 μL of Solution B of the PURE Express In Vitro Protein Synthesis Kit (New England Biolabs) and incubated 2 hours at 37° C. Next, 2 μL of DNAse I was added and incubated for 20 min at 37° C.
Purification. RPP (SEQ ID NOS: 2 and 4) and CP: The final solution from the in vitro expression step was diluted to 100 μL and filtered through the Amicon Ultracel 0.5 mL-100K columns (Sigma) to remove ribosomes. The flow through was added to 100 μL of washed Ni-NTA Magnetic Agarose Beads (Qiagen) and was washed with wash buffer as described by the manufacturer.
Cyclization. The RPP (SEQ ID NO: 2) or was cyclized by mixing the beads with 500 μL of the cyclization solution which was made by mixing 2.65 mL of the 1.33×PBS (66.5 mM phosphate buffer, 400 mM NaCl) with 1.32 mL of dibromo-m-xylene solution in acetonitrile (2.5 mg/mL). Following incubation with the cyclization solution beads were washed once with wash buffer I (PBS with 25 mM imidazole, 0.5 μL/mL of mercaptoethanol), once with wash buffer II (PBS with 25 mM imidazole, 0.5 mM TCEP), twice with wash buffer III (PBS with 25 mM imidazole) and eluted with 50 μL of the elution buffer (PBS with 500 mM imidazole). Imidazole was removed using Bio-Rad Micro Bio-Spin Chromatography columns.
Dosing and Cell Culture. NBFL cells (FIG. 9) grown in 6 well were dosed with 1 μM of linear (SEQ ID NO: 2) or cyclic (SEQ ID NO: 2) RPP (Table 8) or control peptide (Table 9) for 16 or 48 hours.
After dosing, cells were lysed and assessed for BDNF, NGF, and KV4.3 mRNA levels (FIG. 9). All of the primers used have been described except for NGF: forward: 5′[…]3′ (SEQ ID NO: 338) and reverse 5′[…]3′ (SEQ ID NO: 339).

L5 DRGs = assay: qRT-PCR mRNA expression in ex vivo cultured L5 DRGs; format: cell-based, Sprague Dawley rat; conditions: DRG; 1 μM; 48 h
Procedure: FIG. 15. […] Error bars =standard error of the mean.
L5 DRGs were dissected from adult male rats and plated in 12-well plates pre-coated with poly-D-Lysine (PDL) and laminin in a minimal volume of medium (250 ul Neurobasal™-A medium (GIBCO) supplemented with B27 (GIBCO), 50 ng/ml NGF (Sigma-Aldrich) and penicillin streptomycin) to allow attachment to the culture plate. One day after plating, DRGs were incubated with RPP (SEQ. ID NO: 12: 1 μM, 3 μM or 10 μM in culture medium, FIGS. 14 and 16; SEQ ID NOS: 13 and 14: 3 μM, FIG. 15) for 48 h. For RNA expression analysis, DRGs were lysed in 300 μl of Qiazol in a 1.5 ml tube containing Bullet Blender Pink Beads using a Bullet Blender Tissue Homogenizer (NextAdvance). Total RNA was extracted using RNeasy Midi Kit (Qiagen) according to manufacturer's instructions. Purified RNA was quantified with NanoDrop 2000 (ThermoFIsher), and reverse transcription was run using High Capacity cDNA Reverse Transcription Kit (Applied Biosystems) and 2 ng/ul RNA per reaction. For qRT-PCR, 5 ul of cDNA (corresponding to 10 ng of RNA) were mixed with to 10 ul SsoAdvanced™ Universal SYBR® Green Supermix (BioRad) and 1 ul of each primer (final primer concentration 500 nM each). Reactions were run in triplicates in a QuantStudio™ 7 Flex Real-Time PCR system (Applied Biosystems). Amplification data were analyzed using the comparative cycle threshold (ΔΔCt) method and β-actin as calibrator. Primers were as follows: β-actin: F-[…] (SEQ ID NO: 340), R-[…] (SEQ ID NO: 333); KV4.3: F-[…] (SEQ ID NO: 341), R-[…] (SEQ ID NO: 342); KV7.2 F-[…] AG (SEQ ID NO: 343), R-[…] (SEQ ID NO: 344); OPRM1: F-[…] (SEQ ID NO: 345), R-[…] (SEQ ID NO: 346).

[2] = test system: iPSCs (neural stem cells (NSC)-NL5); assay: Neuronal differentiation of iPSC NSC-NL5 (MAP2, TUJ1 normalized to DAPI); format: cell-based, human; conditions: 7 days
Procedure: FIG. 11. iPSCs (neural stem cells (NSC)-NL5) were dosed with one of the RPP sequences (3 μM) or water control shown below. After 7 days in culture, cells were assessed for neuronal differentiation using the Microtubule Associated Protein 2 (MAP2) neuronal marker (normalized to DAPI). Media and variants were replaced on Day 3. MAP2 levels are relative to control in the bar graph (standard deviation n=4).
FIG. 12. iPSCs (neural stem cells (NSC)-NL5) were with 1 μM RPP (SEQ ID NO. 9) or water control. After 7 days in culture, cells were assessed for neuronal differentiation using neuronal markers TUJ1 (class III beta-tubulin) and MAP2 (both normalized to DAPI). Media and RPP were replaced on Day 3. (standard deviation, n=6).
FIG. 13. iPSCs (neural stem cells (NSC)-NL5) were with 1 μM RPP (SEQ ID NO. 13) or water control. After 7 days in culture, cells were assessed for neuronal differentiation using neuronal markers TUJ1 and MAP2 (both normalized to DAPI). Media and RPP were replaced on Day 3. (standard deviation, n=6).
Approach 2: Induced pluripotent stem cells (neural stem cells (NSC)-NL5) differentiate after 7 Days of RPP dosing (FIG. 11 (SEQ ID NOS: 5-11, 3 μM); FIG. 12 (SEQ ID NO: 9, 1 μM) FIG. 13 (SEQ ID NO: 13 (FIG. 27), 1 μM)) using the following “Neuron to Blank” protocol: • 1. 24 well culture plates (Black Visiplate) were coated with Matrigel ([…] for 30 minutes at 37° C.). • 2. NSCs-NLS (see media below) were plated at 0.5×10^5 per well.
• 3. After 24 hours (cells should be >70% confluent), the media was changed to neuronal differentiation medium (below) with various concentrations of test peptides or water control added (FIGS. 11, 12, and 13, Table 14). The neuronal differentiation medium, with new test peptides and control, was changed every 2 days for 5 days.
• 4. On Day 7 cells were fixed 4% formaldehyde in 1×PBS for 30 minutes. • 5. Cells were immunolabeled with mouse anti-TUJ1 (1:1000) and rabbit anti-Map2 (1:500) overnight. Then label with 2nd antibody (anti-mouse488, anti-rabbit568 and DAPi) for 1 hour. • 6. Data was collected on a BioTek plate reader • a. Dapi: Excitation 360/40; Emission 460/20, Gain 35; • b. Alexa 488: Excitation 485/20; Emission 528/20, Gain 50; • c. Alexa 568: Excitation 560/20; Emission 620/10, Gain 75).

[3] = test system: mesenchymal progenitor cells (MPCs); assay: BDNF and NGF mRNA expression in MPCs; format: cell-based, human; conditions: MPC, 3 μM
Procedure: FIG. 10. BDNF and NGF mRNA expression (normalized to actin) in mesenchymal progenitor cells (MPCs), from two patients, after a 48 hour incubation with water (Ctrl) or […] RPP (SEQ. ID NO: 9). mRNA levels are shown relative to control (standard deviation, n=2).
Mesenchymal progenitor cells (MPCs) (FIG. 10) from two patients were plated on 12 well plates and cultured in general medium (GM) (DMEM, 10% FBS, PSF). Lyophilized RPP (SEQ ID NO: 9) was dissolved in water at a concentration of 5 mM (1 mg/34.89, diluted in medium to 3 μM, and then incubated with the cell for 48 hours. The control was water.
MPCs were cultured as described in Gervasi et al., 2020^76.

CC(C)C[C@H](NC(=O)[C@H](CC(=O)O)NC(=O)[C@H](CCC(=O)O)NC(=O)[C@@H](NC(=O)[C@H](CCCCN)NC(=O)[C@H](CC(=O)O)NC(=O)[C@H](CC(=O)O)NC(=O)[C@H](CC(=O)O)NC(=O)[C@H](CC(=O)O)NC(=O)[C@H](CCCCN)NC(=O)[C@H](Cc1ccc(O)cc1)NC(=O)[C@H](CC(=O)O)NC(=O)[C@H](CCCCN)NC(=O)[C@H](CCC(N)=O)NC(=O)[C@H](C)NC(=O)[C@@H](N)CS)[C@@H](C)O)C(=O)N[C@@H](CCC(=O)O)C(=O)N1CCC[C@H]1C(=O)N1CCC[C@H]1C(=O)N[C@@H](CCC(=O)O)C(=O)N1CCC[C@H]1C(=O)N1CCC[C@H]1C(=O)N[C@@H](CC(C)C)C(=O)N1CCC[C@H]1C(=O)N[C@@H](CCCCN)C(=O)N[C@@H](CCC(=O)O)C(=O)N[C@@H](CC(N)=O)C(=O)NCC(=O)N[C@@H](CCCNC(=N)N)C(=O)N[C@@H](CCCCN)C(=O)N[C@@H](CCCCN)C(=O)N[C@@H](CCCNC(=N)N)C(=O)N[C@@H](CCCNC(=N)N)C(=O)N[C@@H](CCC(N)=O)C(=O)N[C@@H](CCCNC(=N)N)C(=O)N[C@@H](CCCNC(=N)N)C(=O)N[C@@H](CCCNC(=N)N)C(=O)NCC(=O)O [SEQ ID NO: 4] (H-CAQKDYKDDDDKTEDLEPPEPPLPKENGRKKRRQRRRG-OH; N-terminus and C-terminus assumed)
localization in nuclei of sciatic nerve neurons in spinal cord [1]: accumulates in the nuclei of the sciatic nerve in spinal cord | localization in nuclei of sciatic nerve neurons in spinal cord ([1]; listed as Linear RPP): accumulates in the nucleus of sciatic nerve tissue

MCTEDLEPPEPPLPKENCGSGSGRKKRRQRRRGGSGSLGHHHHHHGTGY (linker 2-18 via mXylylene (inferred)) [SEQ ID NO: 2, RPP-CPP-His, cyclized with dibromo-m-xylene]
Increase, BDNF mRNA (NBFL cells; 16 h): 5x | Increase, KV4.3 mRNA (NBFL cells; 16 h): 5x | Increase, NGF mRNA (NBFL cells; 16 h): 3.2x | Increase, BDNF mRNA (NBFL cells; 48 h): 2.3x | Increase, KV4.3 mRNA (NBFL cells; 48 h): 5x | Increase, NGF mRNA (NBFL cells; 48 h): 1.7x | Increase, BDNF mRNA (NBFL cells; 48 h, listed as Cyclic): 1.75× x | Increase, KV4.3 mRNA (NBFL cells; 48 h, listed as Cyclic): 25× x | Increase, NGF mRNA (NBFL cells; 48 h, listed as Cyclic): 1.87 x

SEQ ID NO: 13: CPP with poly arginine sequence and two 2-aminotetradecanoic acids integrated with the REST RI phosphomimetic ([dR][dR][ξGly(dodecyl)][dR][dR][ξGly(dodecyl)][dR][dR][dR][dR][dR][dK][dP][dL][dP][dP][dE][dP][dP][dE][dL][dD][dE])
Increase, Nav1.8 mRNA (L5 DRGs): 6x | increase of differentiation, MAP2 normalized to DAPI ([2]; 0.1 μM): 27% | increase of differentiation, TUJ1 normalized to DAPI ([2]; 0.1 μM): 60% | increase of differentiation, MAP2 normalized to DAPI ([2]; 1 μM): 2 times | increase of differentiation, TUJ1 normalized to DAPI ([2]; 1 μM): 3 times

rrrrwrrwwrrwrrnekplppeppeldet ([dR][dR][dR][dR][dW][dR][dR][dW][dW][dR][dR][dW][dR][dR][dN][dE][dK][dP][dL][dP][dP][dE][dP][dP][dE][dL][dD][dE][dT]) [SEQ ID NO: 9]
Increase, BDNF mRNA ([3]; 48 h): 2x | Increase, NGF mRNA ([3]; 48 h): 2.9x | increase of BDNF relative to water control ([3]; 48 hours): approximately 2 times | increase of NGF relative to water control ([3]; 48 hours): ~3 times
